Assay results from ChEMBL document CHEMBL2384942, “Modulation of acridine mutagen ICR191 intercalation to DNA by methylxanthines--analysis with mathematical models” (Bioorg Med Chem, 2013).
The source made the active and inactive calls. No cut-off for these calls is given here.

What was measured:
Salmonella typhimurium [1] = assay: Mutagenic activity in Salmonella typhimurium TA98 at 2 mg/plate after 4 hrs by Ames test; assay type: toxicity, organism-based; settings: salmonella enterica subsp. enterica serovar typhimurium
Salmonella typhimurium [2] = assay: Protective effect in Salmonella typhimurium TA98 assessed as decrease in ICR191-induced mutagenic effect at 0.05 to 2000 ug/plate after 4 hrs by Ames test; assay type: functional, organism-based; settings: Salmonella enterica subsp. enterica serovar Typhimurium
MDBK [3] = assay: Binding affinity to ICR191 in MDBK cells assessed as decrease in molar fraction of free mutagen at 1 to 12 mM by spectrophotometric analysis; assay type: cell-based
MDBK [4] = assay: Binding affinity to ICR191 in MDBK cells assessed as decrease in formation of mutagen-chromatin complex at 1 to 12 mM by spectrophotometric analysis; assay type: cell-based
Salmonella typhimurium [5] = assay: Mutagenic activity in Salmonella typhimurium TA98 at 0.1 ug/plate after 4 hrs by Ames test; assay type: toxicity, organism-based; settings: salmonella enterica subsp. enterica serovar typhimurium

SMILES: CC(=O)CCCCn1c(=O)c2c(ncn2C)n(C)c1=O [PENTOXIFYLLINE]
- Activity (Salmonella typhimurium [1]): Non-toxic
- Activity (Salmonella typhimurium [2]): Active

SMILES: Cn1c(=O)c2c(ncn2C)n(C)c1=O
- Activity (MDBK [3]): Active
- Activity (MDBK [4]): Active

SMILES: COc1ccc2nc3cc(Cl)ccc3c(NCCCNCCCl)c2c1.Cl.Cl.Cl.Cl
- Activity (Salmonella typhimurium [5]): Non-toxic
